# Test results published in patent US20080026417A1, “ASSAYS FOR TRICHOMONAL AND OTHER HYDROLASES” (priority 2002, published 2008).
# Values joined by “and” are separate entries in the source; they are usually repeats but may differ in a detail not shown here. Equal values may be shown once.
# Columns and labels:
# trichomonal hydrolases [1] = assay: Experiment 13: hydrolysis of peptide substrates by trichomonal hydrolases at low pH, no vaginal fluid; format: biochemical, Trichomonas vaginalis; design: key: −: No red color produced; +: Clearly visible red color produced; ++: Moderately intense red color produced; +++: Very intense red color produced; settings: without vaginal fluid; threonine buffer pH 2.4; 2 mM substrate solution; 10 min 25° C.; Fast Garnet
# Summary of the method: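 Peptide substrates incubated in duplicate for 10 min at 25° C. with trichomonal hydrolase diluted 1:9 in 2 mM L-cysteine; negative controls received L-cysteine alone. SDS/acetate and Fast Garnet added, and color visually scored after 5 min on a color scale.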
# trichomonal hydrolases [2] = assay: Experiment 13: hydrolysis of peptide substrates by trichomonal hydrolases at low pH in vaginal fluid supernatant; format: biochemical, Trichomonas vaginalis; design: key: −: No red color produced; +: Clearly visible red color produced; ++: Moderately intense red color produced; +++: Very intense red color produced; settings: Fast Garnet
# Experimental: Forty μL of each substrate was pipetted into duplicate wells of a microtiter plate. The plate was covered with tape, placed into a 25° C. incubator, and allowed to warm. A diluted enzyme mixture was prepared by mixing one part (v/v) freshly-thawed trichomonal hydrolase solution to nine parts 2 mM L-cysteine solution. Forty μL of this mixture was added to one well of each pair of duplicate wells. For negative controls, 40 μL of 2 mM L-cysteine was added to the second well in each pair of duplicate wells. The plate was returned to the incubator and incubated for ten minutes. Forty μL of SDS/acetate solution was added to each well, followed by 40 μL of Fast Garnet solution. The intensity of color that developed in each well after five minutes was visually scored using the color scale presented in Table 13.1.
# Of the nine substrates hydrolyzed by trichomonal hydrolases to produce an intense pink color (scoring ++ or +++) in the absence of vaginal fluid supernatant, only four produced intense pink color when vaginal fluid supernatant was present.
# [3] = system: endogenous hydrolases present in normal vaginal fluid; assay: Experiment 14: substrate comparison on swabs with normal vaginal fluid at low pH; format: biochemical, human; design: key: 0: Colorless or yellow - no pink color; trace: Peach or orange; 1: Faint pink; 2-8: Intermediate intensities of pink; 8: Very intense pink/red; settings: Normal (n = 3); 150 mM substrate film solution; threonine pH 2.4; Fast Red; 0-9 scale
# Experimental: Mixtures were made of the 400 mM substrate stock solutions, 25% hydroxy-propylcellulose solution, 200 mM L-cysteine, along with additional ethanol to a final concentration of 150-320 mM substrate, 20 mM L-cysteine, and 2-5% hydroxypropyl-cellulose. Substrate films were made by pipetting 1 μL of a mixture over a circular area approximately […] in diameter on a sheet of Mylar, and drying under a stream of dry nitrogen. The dried films were stored in a container with desiccant until used.
# For each pair of vaginal fluid specimens from a donor, one swab was rubbed on one substrate film and the other swab was rubbed on a different substrate film; two substrates were compared at a time. The concentrations of the substrates varied from 150 mM to 320 mM in the solutions used to make the substrate films, but each specific comparison matched equimolar concentrations of substrates (as specified in Tables 14.1, 14.2, and 14.3 below). […] The intensity of pink color that developed on each swab after two minutes was visually scored using the 0-9 color scale presented in Table 11.1 above; fractional scores such as 1.3 were used when color intensities between swabs differed only slightly.
# trichomonal hydrolases [4] = assay: Experiment 14: substrate comparison on swabs with vaginal fluid plus trichomonal hydrolases at low pH; format: biochemical, Trichomonas vaginalis; settings: threonine pH 2.4, 0-9 scale
# Experimental: For each pair of vaginal fluid specimens from a donor, one swab was rubbed on one substrate film and the other swab was rubbed on a different substrate film; two substrates were compared at a time. The concentrations of the substrates varied from 150 mM to 320 mM in the solutions used to make the substrate films, but each specific comparison matched equimolar concentrations of substrates (as specified in Tables 14.1, 14.2, and 14.3 below). In the swabs, the substrate was diluted by vaginal fluid and buffer, and the final concentration of substrate in the swab tip was estimated to be 1/60 of the concentration of substrate in the solutions used to make the films. Immediately after each swab was rubbed on a substrate film, a 35-μL drop of threonine buffer was applied to the plastic where the substrate film had been, and the swab was rubbed on the same spot again until the buffer was absorbed into the swab. The swabs were left lying on the plastic for ten minutes, then each swab was rubbed on a Fast Red or Fast Garnet film. For the comparisons between ZLR and ZVR, and between VLR-MNA and ZRRR-MNA, films made with 10 mM Fast Garnet were used; for the comparison between ZVR and VLR-MNA, films made with 70 mM Fast Red were used. The intensity of pink color that developed on each swab after two minutes was visually scored using the 0-9 color scale presented in Table 11.1 above; fractional scores such as 1.3 were used when color intensities between swabs differed only slightly. In this part of the experiment, 20 μL of trichomonal hydrolases was applied to the tip of each swab containing vaginal fluid just prior to running the assay. Otherwise, the procedure was exactly the same as for the swabs containing only vaginal fluid.
# trichomonal hydrolases [5] = assay: Experiment 11: hydrolysis of ZRRR-MNA by trichomonal hydrolases at pH 1.9-3.4, read on swab; format: biochemical, Trichomonas vaginalis; settings: Fast Red RL, 0-9 scale
# Experimental: The 200 mM ZRRR-MNA solution was mixed with 25% hydroxypropylcellulose solution and additional ethanol to a final concentration of 80 mM ZRRR-MNA and 5% hydroxypropyl-cellulose. Substrate films were made by pipetting 1 μL of a mixture over a circular area approximately ¼-inch in diameter on a sheet of Mylar, and drying under a stream of dry nitrogen. An 80-μL aliquot of a malic acid buffer solution, at each pH listed above, was pipetted into each of eight separate round-bottom wells on a microtiter plate. Eighty μL of 10% trichomonal hydrolase solution was added to each well and mixed thoroughly. Half of the volume in each well (80 μL) was then transferred to a second set of eight wells, into which the swabs were then inserted. After the 80 μL of liquid was absorbed from each well into the respective swab, each swab was rubbed on a substrate film. Ten minutes after the swabs were exposed to substrate, each swab was rubbed on an indicator (Fast Red) film. The intensity of pink color that developed on each swab after one minute was visually scored in 0.5 unit increments using the 0-9 color scale presented in Table 11.1 below. To determine the final pH of the eight mixtures of trichomonal hydrolases and buffer, the pH of the liquid remaining in the first set of eight wells was measured using a pH meter. The experiment was repeated omitting the lowest pH and highest pH wells.
# trichomonal hydrolases [6] = assay: Experiment 17: effect of amount of VLR-MNA on color produced by trichomonal hydrolases on swabs; format: biochemical, Trichomonas vaginalis; settings: 0-9 scale
# Experimental: Solution A, containing 10% v/v trichomonal hydrolases and 2 mM L-cysteine, was prepared by mixing 20 μL of trichomonal hydrolases with 4 μl of 100 mM L-cysteine and 176 μL of water, and Solution B, containing 20% v/v trichomonal hydrolases, 5% v/v normal vaginal fluid supernatant and 2 mM L-cysteine, was prepared by mixing 40 μL of trichomonal hydrolases with 10 μL of normal vaginal fluid supernatant, 4 μL of 100 mM L-cysteine and […]. Several 35 μL drops each of Solution A, Solution B, and threonine buffer were individually pipetted onto discrete, separated areas on a sheet of Mylar. Individual cotton swabs were rubbed on a drop of either Solution A or Solution B, then on one, two or three dots of substrate, and then on a drop of buffer. After ten minutes, each swab was rubbed on an indicator film. The intensity of pink color that developed on each swab after thirty seconds was visually scored in 0.5 unit increments using the 0-9 color scale presented in Table 11.1.
# [7] = Hydrolases added (n = 2), 150 mM substrate film solution, Fast Red
# [8] = Hydrolases added (n = 5), 200 mM substrate film solution, Fast Garnet
SMILES,Color Score (trichomonal hydrolases [1]),Color Score (trichomonal hydrolases [2]),Color Score [3],Color Score (trichomonal hydrolases [4]; [7]),"Color Score (trichomonal hydrolases [4]; Hydrolases added (n = 4), 320 mM substrate film solution, Fast Garnet)",Color Scores (trichomonal hydrolases [5]; malic acid pH 1.3 / final pH in wells 1.9),"Color Scores (trichomonal hydrolases [5]; malic acid pH 1.6 / final pH 2.1, 1st experiment and duplicate)","Color Scores (trichomonal hydrolases [5]; malic acid pH 1.9 / final pH 2.3, 1st experiment and duplicate)","Color Scores (trichomonal hydrolases [5]; malic acid pH 2.2 / final pH 2.4, 1st experiment and duplicate)","Color Scores (trichomonal hydrolases [5]; malic acid pH 2.5 / final pH 2.6, 1st experiment and duplicate)","Color Scores (trichomonal hydrolases [5]; malic acid pH 2.8 / final pH 2.9, 1st experiment and duplicate)","Color Scores (trichomonal hydrolases [5]; malic acid pH 3.1 / final pH 3.2, 1st experiment and duplicate)",Color Scores (trichomonal hydrolases [5]; malic acid pH 3.4 / final pH 3.4),Color Score (trichomonal hydrolases [4]; [8]),"Color Score (trichomonal hydrolases [6]; Solution A (10% trichomonal hydrolases, no vaginal fluid), One dot of Substrate)","Color Score (trichomonal hydrolases [6]; Solution A, Three dots of Substrate)","Color Score (trichomonal hydrolases [6]; Solution A, Two dots of Substrate)","Color Score (trichomonal hydrolases [6]; Solution B (20% trichomonal hydrolases, 5% normal vaginal fluid supernatant), One dot of Substrate)","Color Score (trichomonal hydrolases [6]; Solution B, Three dots of Substrate)","Color Score (trichomonal hydrolases [6]; Solution B, Two dots of Substrate)"
"COc1cc(NC(=O)[C@H](CCCNC(=N)N)NC(=O)[C@@H](NC(=O)OCc2ccccc2)C(C)C)cc2ccccc12 [ZVR, CBZ-Val-Arg-MNA]",+++,++,2.5 to 3,4.5 to 5,1 to 5,–,–,–,–,–,–,–,–,–,–,–,–,–,–,–
"CC(=O)O.COc1cc(NC(=O)[C@H](CCCN=C(N)N)NC(=O)[C@H](CCCN=C(N)N)NC(=O)[C@H](CCCN=C(N)N)NC(=O)OCc2ccccc2)cc2ccccc12 [ZRRR-MNA, CBZ-Arg-Arg-Arg-MNA]",+++,++,–,–,–,2,4.5,5,5.5 and 6,5.5 and 5,5 and 3.5,4.5 and 3,3,1 to 4,–,–,–,–,–,–
"COc1cc(NC(=O)C(CCCN=C(N)N)NC(=O)C(CC(C)C)NC(=O)C(N)C(C)C)cc2ccccc12 [VLR-MNA, D-Val-Leu-Arg-MNA]",+++,+++,0,2 to 2.5,–,–,–,–,–,–,–,–,–,1 to 4,5.5,9,7,2.5,5.5,4
